Test results as given in patent EP0960338B1, “DIAGNOSTIC METHODS AND COMPOSITIONS BASED ON THE DISTRIBUTION OF RAD51” (Yale University, priority 1997, dated 1998).
“And” between values parts separate entries of the source, which are not always exact repeats. Identical values can stand only once.

Assays:
TGR-1 cells [1] = experiment: Immunofluorescent staining of Rad51 foci in nuclei and micronuclei; format: cell-based, rat
Protocol: (§1) Cell Culture. The sources of the cell lines were as follows. Rat TGR-1 cells, J. Sedivy. Brown University; mouse 3T3-Swiss cells, ATCC; human 293 kidney cells, ATCC; human teratoma cells, B. King, Yale University; human LNL8 fibroblasts, S. Meyn, Yale: human XPA and XPF fibroblasts, P Glazer, Yale.
(§2) Monolayer cultures were grown in D-MEM medium supplemented with 10% fetal bovine serum and antibiotics.
(§3) Immunofluorescent Staining.
(§4) Digital Imaging Microscopy.

LNL8 fibroblasts = experiment: as above; format: cell-based, human
Protocol: as §1, §2, §3, §4

TGR-1 cells [2] = system: TGR-1 cells
TGR-1 cells [3] = experiment: Apoptosis by fluorescence in situ end labeling (FISEL); format: cell-based, rat; conditions: for Percentage of Apoptotic Cells: FISEL+
Protocol: Fluorescence In Situ End Labeling (FISEL). FISEL detects cell death (apoptosis) in situ by quantitating DNA strand breaks in individual nuclei. It uses terminal transferase (TdT) to label the 3'-ends in fragmented genomic DNA with biotinylated nucleotide. 100 µl of reaction mix contain 1 µl (25 Units) TdT (Boehringer Mannheim), 20 µl 5xTdT buffer (supplied with the enyzme), 1 µl 0.5 mM biotin-II-dUTP, 3 µl 0.5 mM dTTP, and 75 µl ddH2O. Cytological preprations are incubated at 37°C for 1 hr with this reaction mix. Washing the slides for 3x5 min in PBS is sufficient to terminate the reaction. The incorporated biotin-dUTP is detected with rhodarnine-conjugated avidin.
Another more classical way for inducing apoptosis in vitro is the exposure of TGR-1 cells to the topoisomerase II inhibitor etoposide.

[4] = TGR-1, 10^-5 M 5-aza-dC added 24 hrs before cell harvest
[5] = LNL8, 10^-5 M 5-aza-dC added 24 hrs before cell harvest
[6] = TGR-1, 2 hrs in medium containing etoposide
[7] = TGR-1, 5 hrs in medium containing etoposide
[8] = TGR-1, 12 hrs in medium containing etoposide
[9] = TGR-1, 18 hrs in medium containing etoposide
[10] = TGR-1, 24 hrs in medium containing etoposide
[11] = TGR-1, 36 hrs in medium containing etoposide

SMILES: Nc1ncn([C@H]2C[C@H](O)[C@@H](CO)O2)c(=O)n1 [5-aza-dC, 5-azadeoxycytidine]
- cells displaying MN with focally concentrated Rad51 protein (TGR-1 cells [1]; Rat TGR-1 cultures, non-lethal doses of 5-aza-dC, range stated jointly with LNL8): 5-10%
- Percentage of Cells with Type I Foci in Micronuclei (TGR-1 cells [1]; [4]): 4%
- Percentage of Cells with Type I Foci in Nuclei (TGR-1 cells [1]; [4]): 5%
- Percentage of Cells with Type II Foci in Micronuclei (TGR-1 cells [1]; [4]): 4%
- Percentage of Cells with Type II Foci in Nuceli (TGR-1 cells [1]; [4]): 1%
- Percentage of Cells without Foci (TGR-1 cells [1]; [4]): 86%
- Percentage of Cells with Type I Foci in Micronuclei (LNL8 fibroblasts; [5]): 1%
- Percentage of Cells with Type I Foci in Nuclei (LNL8 fibroblasts; [5]): 3%
- Percentage of Cells with Type II Foci in Micronuclei (LNL8 fibroblasts; [5]): 5%
- Percentage of Cells with Type II Foci in Nuceli (LNL8 fibroblasts; [5]): 2%
- Percentage of Cells without Foci (LNL8 fibroblasts; [5]): 89%
- cells displaying MN with focally concentrated Rad51 protein (LNL8 fibroblasts; human LNL8 fibroblast cultures, non-lethal doses of 5-aza-dC, range stated jointly with TGR-1): 5-10%

SMILES: CN[C@H]1CCc2cc(OC)c(OC)c(OC)c2-c2ccc(OC)c(=O)cc21 [Colcemid, colcemid]
- Percentage of Cells Showing Rad 51+/ FISEL+ (TGR-1 cells [2]): 0% and 1% and 6% and 4%
- Percentage of Cells Showing Rad51-/ FISEL- (TGR-1 cells [2]): 85% and 54% and 45% and 43%
- induced MN containing very brightly fluorescing Rad51 foci (TGR-1 cells [2]): over 30%

SMILES: COc1cc([C@@H]2c3cc4c(cc3[C@@H](O[C@@H]3O[C@@H]5CO[C@@H](C)O[C@H]5[C@H](O)[C@H]3O)[C@H]3COC(=O)[C@H]23)OCO4)cc(OC)c1O [etoposide]
- Percentage of Cells with Type I Foci in Micronuclei (TGR-1 cells [1]; [6]): 1%
- Percentage of Cells with Type I Foci in Nuclei (TGR-1 cells [1]; [6]): 4%
- Percentage of Cells with Type II Foci in Micronuclei (TGR-1 cells [1]; [6]): 2%
- Percentage of Cells with Type II Foci in Nuclei (TGR-1 cells [1]; [6]): 1%
- Percentage of Cells without Foci (TGR-1 cells [1]; [6]): 92%
- Percentage of Cells with Type I Foci in Micronuclei (TGR-1 cells [1]; [7]): 2%
- Percentage of Cells with Type I Foci in Nuclei (TGR-1 cells [1]; [7]): 3%
- Percentage of Cells with Type II Foci in Micronuclei (TGR-1 cells [1]; [7]): 2%
- Percentage of Cells with Type II Foci in Nuclei (TGR-1 cells [1]; [7]): 1%
- Percentage of Cells without Foci (TGR-1 cells [1]; [7]): 92%
- Percentage of Cells with Type I Foci in Micronuclei (TGR-1 cells [1]; [8]): 2%
- Percentage of Cells with Type I Foci in Nuclei (TGR-1 cells [1]; [8]): 8%
- Percentage of Cells with Type II Foci in Micronuclei (TGR-1 cells [1]; [8]): 2%
- Percentage of Cells with Type II Foci in Nuclei (TGR-1 cells [1]; [8]): 1%
- Percentage of Cells without Foci (TGR-1 cells [1]; [8]): 87%
- Percentage of Cells with Type I Foci in Micronuclei (TGR-1 cells [1]; [9]): 8%
- Percentage of Cells with Type I Foci in Nuclei (TGR-1 cells [1]; [9]): 3%
- Percentage of Cells with Type II Foci in Micronuclei (TGR-1 cells [1]; [9]): 9%
- Percentage of Cells with Type II Foci in Nuclei (TGR-1 cells [1]; [9]): 1%
- Percentage of Cells without Foci (TGR-1 cells [1]; [9]): 79%
- Percentage of Cells with Type I Foci in Micronuclei (TGR-1 cells [1]; [10]): 2%
- Percentage of Cells with Type I Foci in Nuclei (TGR-1 cells [1]; [10]): 2%
- Percentage of Cells with Type II Foci in Micronuclei (TGR-1 cells [1]; [10]): 8%
- Percentage of Cells with Type II Foci in Nuclei (TGR-1 cells [1]; [10]): 6%
- Percentage of Cells without Foci (TGR-1 cells [1]; [10]): 82%
- Percentage of Cells with Type I Foci in Micronuclei (TGR-1 cells [1]; [11]): 5%
- Percentage of Cells with Type I Foci in Nuclei (TGR-1 cells [1]; [11]): 2%
- Percentage of Cells with Type II Foci in Micronuclei (TGR-1 cells [1]; [11]): 9%
- Percentage of Cells with Type II Foci in Nuclei (TGR-1 cells [1]; [11]): 1%
- Percentage of Cells without Foci (TGR-1 cells [1]; [11]): 83%
- Percentage of Apoptotic Cells (TGR-1 cells [3]; 12 hrs in medium containing etoposide): 17%
- Percentage of Apoptotic Cells (TGR-1 cells [3]; 18 hrs in medium containing etoposide): 24%
- Percentage of Apoptotic Cells (TGR-1 cells [3]; 24 hrs in medium containing etoposide): 33%
- cells showing genome fragmentation, stained FISEL-positively (TGR-1 cells [3]; 36 hrs after adding etoposide to the culture medium): half
- Percentage of Apoptotic Cells (TGR-1 cells [3]; 36 hrs in medium containing etoposide): 47%
